Source: patent publication US6949544B2, “Inhibitors of c-Jun N-terminal kinases (JNK) and other protein kinases” (Vertex Pharmaceuticals Incorporated, priority 2001, dated 2005)
pKi: −log10 of the molar value.

Experiments:
Format in all cases: biochemical
activated JNK3 = target: T1, activated JNK3 (Homo sapiens, UniProt P53779); experiment: JNK inhibition assay (spectrophotometric coupled-enzyme assay); settings: 10 nM activated JNK3, 10 μM ATP; read-out: Activity in the JNK3 Inhibition Assay (Ki rating A-C)
T1 construct: One such construct encodes amino acid residues Ser40-Glu402 of JNK3α1 and is preceded by Met and Gly residues; Met-Gly (initiator methionine and added glycine) (N); made in house; host or cells: E. coli BL21 (DE3)
Text: A BLAST search of the EST database using the published JNK3α1 cDNA as a query identified an EST clone (#632588) that contained the entire coding sequence for human JNK3α1. Polymerase chain reactions (PCR) using pfu polymerase (Strategene) were used to introduce restriction sites into the cDNA for cloning into the pET-15B expression vector at the NcoI and BamHI sites. The protein was expressed in E. coli. […] This truncation corresponds to Ser 2 of JNK1 and JNK2 proteins, and is preceded by a methionine (initiation) and a glycine residue. The glycine residue was added in order to introduce an NcoI site for cloning into the expression vector. In addition, systematic C-terminal truncations were performed by PCR to identify a construct that give rise to diffraction-quality crystals.
5 mg of JNK3 was diluted to 0.5 mg/ml in 50 mM HEPES buffer, pH 7.5, containing 100 mM NaCl, 5 mM DTT, 20 mM MgCl2 and 1 mM ATP. GST-MKK7(DD) was added at a molar ratio of 1:2.5 GST-MKK7:JNK3. After incubation for 30 minutes at 25° C., the reaction mixture was concentrated 5-fold by ultrafiltration in a Centriprep-30 (Amicon, Beverly, Mass.), diluted to 10 ml and an additional 1 mM ATP added. This procedure was repeated three times to remove ADP and replenish ATP. The final addition of ATP was 5 mM and the mixture incubated overnight at 4° C.
The activated JNK3/GST-MKK7(DD) reaction mixture was exchanged into 50 mM HEPES buffer, pH 7.5, containing 5 mM DTT and 5% glycerol (w/v) by dialysis or ultrafiltration. The reaction mixture was adjusted to 1.1 M potassium phosphate, pH 7.5, and purified by hydrophobic interaction chromatography (at 25° C.) using a Rainin Hydropore column. […] Activated JNK3 (i.e. doubly phosphorylated JNK3) was stored at −70° C. at 0.25-1 mg/ml.
Compounds were assayed for the inhibition of JNK3 by a spectrophotometric coupled-enzyme assay. In this assay, a fixed concentration of activated JNK3 (10 nM) was incubated with various concentrations of a potential inhibitor dissolved in DMSO for 10 minutes at 30° C. in a buffer containing 0.1 M HEPES buffer, pH 7.5, containing 10 mM MgCl2, 2.5 mM phosphoenolpyruvate, 200 μM NADH, 150 μg/mL pyruvate kinase, 50 μg/mL lactate dehydrogenase, and 200 μM EGF receptor peptide. […] The reaction was initiated by the addition of 10 μM ATP and the assay plate is inserted into the spectrophotometer's assay plate compartment that was maintained at 30° C. The decrease of absorbance at 340 nm was monitored as a function of time. The rate data as a function of inhibitor concentration was fitted to competitive inhibition kinetic model to determine the Ki.

[1] = target: Glycogen Synthase Kinase 3 (GSK-3) (Homo sapiens, UniProt P49841); experiment: GSK-3 inhibition assay (standard coupled enzyme assay); settings: 60 nM GSK-3, 10 μM ATP; read-out: GSK-3 Inhibitory Activity (Ki rating A-C)
Method: Compounds were screened in the following manner for their ability to inhibit Glycogen Synthase Kinase 3 (GSK-3) using a standard coupled enzyme assay (Fox et al (1998) Protein Sci 7, 2249). To an assay stock buffer solution containing 0.1M HEPES 7.5, 10 mM MgCl2, 25 mM NaCl, 2.5 mM phosphoenolpyruvate, 300 μM NADH, 1 mM DTT, 30 μg/mL pyruvate kinase, 10 μg/mL lactate dehydrogenase, 300 μM peptide (HSSPHQp-SEDEEE, American Peptide, Sunnyvale, Calif.), and 60 nM GSK-3, was added a 30 μM solution of the compound in DMSO and the resulting mixture incubated at 30° C. for 5 min. The reaction was initiated by the addition of 10 μM ATP. The rates of reaction were obtained by monitoring absorbance at 340 nm over a 5 minute read time at 30° C. using a Molecular Devices plate reader (Sunnyvale, Calif.). The IC50 was determined from the rate data as a function of inhibitor concentration.

[2] = target: T2, Lck kinase purified from bovine thymus (Bos taurus, UniProt Q3ZCM0); experiment: Lck inhibition assay (33P incorporation into poly Glu-Tyr); settings: 10 μM ATP; read-out: Activity in the Lck Inhibition Assay (Ki rating A-C)
T2 construct: Lck kinase purified from bovine thymus; purchased Upstate Biotechnology 14-106; host or cells: bovine thymus (tissue-purified)
Method: The compounds were assayed as inhibitors of Lck kinase purified from bovine thymus (from Upstate Biotechnology, cat. no. 14-106). Lck kinase activity was monitored by following the incorporation of ^33P from ATP into the tyrosine of a random poly Glu-Tyr polymer substrate of composition, Glu:Tyr=4:1 (Sigma, cat. no. P-0275). The following were the final concentrations of the assay components: 0.05 M HEPES, pH 7.6, 10 mM MgCl2, 2 mM DTT, 0.25 mg/ml BSA, 10 μM ATP (1-2 μCi ^33P-ATP per reaction), 5 mg/ml poly Glu-Tyr, and 1-2 units of lck kinase. In a typical assay, all the reaction components with the exception of ATP were pre-mixed and aliquoted into assay plate wells. […] The assay plate was incubated at 30° C. for 10 min before initiating the reaction with ^33P-ATP. After 20 min of reaction, the reactions were quenched with 150 μl of 10% trichloroacetic acid (TCA) containing 20 mM Na3PO4. The quenched samples were then transferred to a 96-well filter plate (Whatman, UNI-Filter GF/F Glass Fiber Filter, cat no. 7700-3310) installed on a filter plate vacuum manifold. Filter plates were washed four times with 10% TCA containing 20 mM Na3PO4 and then 4 times with methanol. 200 μl of scintillation fluid was then added to each well. The plates were sealed and the amount of radioactivity associated with the filters was quantified on a TopCount scintillation counter.

CDK-2/Cyclin A = CDK-2/Cyclin A (Homo sapiens, UniProt P24941); experiment: CDK2 inhibition assay (standard coupled enzyme assay); settings: 25 nM CDK-2/Cyclin A; read-out: CDK2 Inhibitory Activity (Ki rating A-C)
Method: Compounds were screened in the following manner for their ability to inhibit CDK2 using a standard coupled enzyme assay (Fox et al (1998) Protein Sci 7, 2249).
To an assay stock buffer solution containing 0.1M HEPES 7.5, 10 mM MgCl2, 1 mM DTT, 25 mM NaCl, 2.5 mM phosphoenolpyruvate, […], […], […], […], and 100 μM peptide ([…], American Peptide, Sunnyvale, Calif.) was added a DMSO solution of a compound of the present invention to a final concentration of 30 μM. The resulting mixture was incubated at 30° C. for 10 minutes.
The reaction was initiated by the addition of 10 μL of CDK-2/Cyclin A stock solution to give a final concentration of 25 nM in the assay. The rates of reaction were obtained by monitoring absorbance at 340 nm over a 5-minute read time at 30° C. using a BioRad Ultramark plate reader (Hercules, Calif.). The Ki values were determined from the rate data as a function of inhibitor concentration.

T2 sequence (Q3ZCM0 1-509): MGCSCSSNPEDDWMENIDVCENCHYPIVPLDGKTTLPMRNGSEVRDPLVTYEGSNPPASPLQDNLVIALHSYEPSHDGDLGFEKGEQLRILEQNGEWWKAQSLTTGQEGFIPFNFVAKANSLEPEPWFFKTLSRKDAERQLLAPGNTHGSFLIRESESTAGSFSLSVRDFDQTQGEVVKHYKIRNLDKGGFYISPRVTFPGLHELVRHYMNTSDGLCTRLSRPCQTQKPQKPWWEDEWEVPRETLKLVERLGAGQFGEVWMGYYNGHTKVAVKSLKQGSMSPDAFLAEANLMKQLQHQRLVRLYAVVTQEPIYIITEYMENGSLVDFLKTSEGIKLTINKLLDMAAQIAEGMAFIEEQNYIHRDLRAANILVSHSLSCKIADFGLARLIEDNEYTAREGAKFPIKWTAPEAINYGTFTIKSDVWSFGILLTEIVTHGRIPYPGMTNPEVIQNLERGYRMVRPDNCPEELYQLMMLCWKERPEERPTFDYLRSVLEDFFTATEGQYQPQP
Glycogen Synthase Kinase 3 (GSK-3), sequence (P49841 whole entry): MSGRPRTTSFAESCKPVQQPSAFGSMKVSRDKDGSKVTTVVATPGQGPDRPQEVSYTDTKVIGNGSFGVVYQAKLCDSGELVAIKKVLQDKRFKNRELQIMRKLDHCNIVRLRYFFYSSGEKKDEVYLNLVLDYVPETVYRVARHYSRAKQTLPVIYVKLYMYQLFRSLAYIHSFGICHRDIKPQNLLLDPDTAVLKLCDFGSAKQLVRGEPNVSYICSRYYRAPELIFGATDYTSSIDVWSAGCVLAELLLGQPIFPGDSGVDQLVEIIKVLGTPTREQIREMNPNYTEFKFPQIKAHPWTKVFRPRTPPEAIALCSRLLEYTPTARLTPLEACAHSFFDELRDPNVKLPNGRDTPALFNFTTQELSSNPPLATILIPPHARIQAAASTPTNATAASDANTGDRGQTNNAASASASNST
T1 sequence (P53779 40-402): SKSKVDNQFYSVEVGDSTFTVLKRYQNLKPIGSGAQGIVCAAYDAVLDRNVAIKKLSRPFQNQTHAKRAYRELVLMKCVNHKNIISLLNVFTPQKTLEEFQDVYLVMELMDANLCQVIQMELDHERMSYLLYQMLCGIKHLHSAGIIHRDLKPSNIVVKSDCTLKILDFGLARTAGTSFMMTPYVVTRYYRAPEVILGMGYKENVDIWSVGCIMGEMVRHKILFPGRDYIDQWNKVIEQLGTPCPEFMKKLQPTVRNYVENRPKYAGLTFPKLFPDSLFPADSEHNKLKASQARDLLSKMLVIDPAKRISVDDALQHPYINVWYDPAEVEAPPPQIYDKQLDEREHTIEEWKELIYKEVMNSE

Compound | pKi (activated JNK3) | pKi [1] | pKi [2] | pKi (CDK-2/Cyclin A)
COc1cc(-c2ccnc(NCc3ccccc3)n2)cc(OC)c1OC [Compound I-37] | < 6.00 | < 6.00 | – | –
COc1cccc(Nc2nccc(-c3cc(C)c(OC)c(C)c3)n2)c1 [Compound I-52] | > 7.00 | 6.00 to 7.00 | – | –
COc1cc(-c2ccnc(Nc3nccs3)n2)cc(OC)c1OC [Compound I-85] | 6.00 to 7.00 | – | 6.00 to 7.00 | –
COc1cc(-c2ccnc(Nc3cccc(N(C)C)c3)n2)cc(OC)c1OC [Compound I-89] | 6.00 to 7.00 | – | 6.00 to 7.00 | –
COc1cc(-c2ccnc(Nc3cccc(S(N)(=O)=O)c3)n2)cc(OC)c1OC [Compound I-94] | > 7.00 | – | 6.00 to 7.00 | –
CCc1ccc(Nc2cc(-c3cc(OC)c(OC)c(OC)c3)ccn2)cc1 [Compound I-158] | – | < 6.00 | – | –
COc1cc(-c2ccnc(Nc3ccc(F)cc3F)c2)cc(OC)c1OC [Compound I-159] | – | 6.00 to 7.00 | – | –
COc1cc(-c2ccnc(Nc3ccc(F)c(F)c3)c2)cc(OC)c1OC [Compound I-160] | – | < 6.00 | – | –
COc1ccc(-c2ccnc(Nc3cccc(OCc4ccccc4)c3)n2)c2c1OCCO2 [II-16] | – | – | 6.00 to 7.00 | –
COc1c(-c2ccnc(Nc3cccc(Oc4ccccc4)c3)n2)ccc2c1OCCO2 [II-17, [4-(5-Methoxy-2,3-dihydro-benzo[1,4]dioxin-6-yl)-pyrimidin-2-yl]-(3-phenoxyphenyl)-amine] | – | – | < 6.00 | –
COc1ccc(-c2ccnc(Nc3cccc(Oc4ccccc4)c3)n2)c(OC)c1OCCN1CCOCC1 [II-19] | – | – | < 6.00 | –
COc1ccc(-c2ccnc(Nc3cccc(OCc4ccccc4)c3)n2)c(OC)c1OCCN1CCOCC1 [II-20] | – | – | < 6.00 | –
COc1ccc(-c2ccnc(Nc3cccc(Oc4ccccc4)c3)n2)c(OCCN2CCOCC2)c1OC [II-21] | – | – | < 6.00 | –
COc1ccc(-c2ccnc(Nc3cccc(OCc4ccccc4)c3)n2)c(OCCN2CCOCC2)c1OC [II-22] | – | – | < 6.00 | –
COc1ccc(-c2ccnc(Nc3cccc(Oc4ccncc4)c3)n2)c(OC)c1OC [II-23] | – | – | > 7.00 | –
COc1ccc(-c2ccnc(Nc3cccc(Cc4ccccc4)c3)n2)c(OC)c1OC [II-27] | – | – | 6.00 to 7.00 | –
COc1ccc(Oc2ccccc2)cc1Nc1nccc(-c2ccc(OC)c(OC)c2OC)n1 [II-31] | – | – | > 7.00 | –
COc1cc(Oc2ccccc2)nc(Nc2nccc(-c3ccc(OC)c(OC)c3OC)n2)n1 [II-34] | – | – | < 6.00 | –
COc1ccc(-c2ccnc(Nc3cccc(-c4ccccc4F)c3)n2)c(OC)c1OC [II-35] | – | – | > 7.00 | –
COc1ccc(-c2ccnc(Nc3cccc(-c4cccc(F)c4)c3)n2)c(OC)c1OC [II-36] | – | – | > 7.00 | –

Compound | pKi (activated JNK3) | pKi [1] | pKi [2] | pKi (CDK-2/Cyclin A)
COc1ccc(-c2ccnc(Nc3cccc(-c4ccc(F)cc4)c3)n2)c(OC)c1OC [II-37] | – | – | > 7.00 | –
COc1ccc(-c2ccnc(Nc3cccc(-c4ccccc4Cl)c3)n2)c(OC)c1OC [II-38] | – | – | 6.00 to 7.00 | –
COc1ccc(-c2ccnc(Nc3cccc(-c4cccc(Cl)c4)c3)n2)c(OC)c1OC [II-39] | – | – | > 7.00 | –
COc1ccc(-c2ccnc(Nc3cccc(-c4ccc(Cl)cc4)c3)n2)c(OC)c1OC [II-40] | – | – | > 7.00 | –
COc1ccccc1-c1cccc(Nc2nccc(-c3ccc(OC)c(OC)c3OC)n2)c1 [II-41] | – | – | 6.00 to 7.00 | –
COc1cccc(-c2cccc(Nc3nccc(-c4ccc(OC)c(OC)c4OC)n3)c2)c1 [II-42] | – | – | 6.00 to 7.00 | –
COc1ccc(-c2cccc(Nc3nccc(-c4ccc(OC)c(OC)c4OC)n3)c2)cc1 [II-43] | – | – | > 7.00 | –
COc1ccc(-c2ccnc(Nc3cccc(-c4ccc(CO)cc4)c3)n2)c(OC)c1OC [II-49] | – | – | > 7.00 | < 5.30
COc1ccc(-c2ccnc(Nc3cccc(-c4ccc(F)c(Cl)c4)c3)n2)c(OC)c1OC [II-50] | – | – | 6.00 to 7.00 | < 5.30
COc1ccc(-c2ccnc(Nc3cccc(-c4cccc(N)c4)c3)n2)c(OC)c1OC [II-51] | – | – | 6.00 to 7.00 | < 5.30
COc1ccc(-c2ccnc(Nc3cccc(-c4ccc(N(C)C)cc4)c3)n2)c(OC)c1OC [II-52] | – | – | 6.00 to 7.00 | < 5.30
COc1ccc(-c2ccnc(Nc3cccc(-c4cccnc4)c3)n2)c(OC)c1OC [II-53] | – | – | 6.00 to 7.00 | < 5.30
COc1ccc(-c2ccnc(Nc3cc(-c4cccc(Cl)c4)ccc3C)n2)c(OC)c1OC [II-54] | – | – | 6.00 to 7.00 | < 5.30
COc1ccc(-c2ccnc(Nc3cc(-c4ccc(N(C)C)cc4)ccc3C)n2)c(OC)c1OC [II-55] | – | – | > 7.00 | < 5.30
COc1ccc(-c2ccnc(Nc3cc(-c4cccc(C(F)(F)F)c4)ccc3C)n2)c(OC)c1OC [II-57] | – | – | < 6.00 | < 5.30
COc1ccc(-c2ccnc(Nc3cc(-c4cc(C)ccc4C)ccc3C)n2)c(OC)c1OC [II-58] | – | – | < 6.00 | < 5.30
CCOc1cccc(-c2ccc(C)c(Nc3nccc(-c4ccc(OC)c(OC)c4OC)n3)c2)c1 [II-59] | – | – | 6.00 to 7.00 | < 5.30
COc1ccc(-c2ccnc(Nc3cc(-c4cccnc4)ccc3C)n2)c(OC)c1OC [II-60] | – | – | 6.00 to 7.00 | < 5.30
COc1ccc(-c2ccnc(Nc3cc(CO)ccc3C)n2)c(OC)c1OC [II-61] | – | – | 6.00 to 7.00 | < 5.30
